From BindingDB's records for doi:10.1016/j.bmcl.2005.08.072 (Merck Research Laboratories, 2005)

Target: T1, Dimer of Gag-Pol polyprotein [489-587,Q496K] (Human immunodeficiency virus 1, UniProt P12497, Q496K)
T1 construct: 489-587
Assay: Protease Inhibition Assay
Details: pH 5.5; 30 °C
Procedure: Assay of HIV protease inhibition was performed by peptide cleavage using the substrate Val-Ser-Gln-Asn-beta-naphthylalanine*Pro-Ile-Val. Products of the cleavage reaction were quantified by HPLC detection, and data were fit to nonlinear least squares equations for determination of steady-state Michaelis-Menten kinetics.

SMILES | IC50
CC(C)(c1ncc(-c2ccc(Cl)cc2)o1)N1CCN(C[C@@H](O)C[C@@H](Cc2cc3ccncc3s2)C(=O)N[C@H]2c3ccccc3OC[C@H]2O)[C@H](C(=O)NCC(F)(F)F)C1 [(2S)-4-{2-[5-(4-chlorophenyl)-1,3-oxazol-2-yl]propan-2-yl}-1-[(2S,4S)-2-hydroxy-4-{[(3S,4S)-3-hydroxy-3,4-dihydro-2H-1-benzopyran-4-yl]carbamoyl}-4-{thieno[2,3-c]pyridin-2-ylmethyl}butyl]-N-(2,2,2-trifluoroethyl)piperazine-2-carboxamide] | < 0.02 nM
CC(C)(c1ncc(-c2ccc(Cl)cc2)o1)N1CCN(C[C@@H](O)C[C@@H](Cc2cc3c(Cl)cncc3s2)C(=O)N[C@H]2c3ccccc3OC[C@H]2O)[C@H](C(=O)NCC(F)(F)F)C1 [(2S)-4-{2-[5-(4-chlorophenyl)-1,3-oxazol-2-yl]propan-2-yl}-1-[(2S,4S)-4-({4-chlorothieno[2,3-c]pyridin-2-yl}methyl)-2-hydroxy-4-{[(3S,4S)-3-hydroxy-3,4-dihydro-2H-1-benzopyran-4-yl]carbamoyl}butyl]-N-(2,2,2-trifluoroethyl)piperazine-2-carboxamide] | < 0.02 nM
